{
  "source": "patent US10450322B2",
  "about": "“Low molecular weight derivatives of carboxamide halogenated porphyrins, namely chlorins and bacteriochlorins, and their applications thereof” (LUZITIN, S.A., priority 2015, dated 2019)",
  "origin": "cited, not measured here",
  "settings": "at physiological pH; cited from earlier work",
  "data": [
    {"compound": "Oc1cccc(-c2c3nc(c(-c4cccc(O)c4)c4ccc([nH]4)c(-c4cccc(O)c4)c4nc(c(-c5cccc(O)c5)c5ccc2[nH]5)CC4)C=C3)c1", "note": "[temoporfin, 5,10,15,20-tetra (m-hydroxyphenyl)chlorin]", "values": [
      {"measurement": "log POW", "result": 5.5}
    ]}
  ]
}
